Where “and” joins values, the source holds several entries; their conditions need not be identical. Identical values can stand only once.
Legend:
Oryctolagus sp. = settings: for LD50: acute
Rattus norvegicus [1] = settings: for LD50 / LC50: acute
Mus musculus [2] = settings: uterotrophic, duration: 3 days, injection, Active
Mus musculus [3] = settings: for LD50: acute
Rattus norvegicus [4] = settings: subchronic, oral
Rattus norvegicus [5] = settings: oral, M/F
[6] = reproduction developmental, mortality and kidney lesions
[7] = subchronic, drinking water, impaired renal function and increased liver and kidney weight
[8] = subchronic, duration: 12 weeks, Inhalation, Long-Evans

**Q.** Which results are given for `O=[N+]([O-])c1ccc(Cl)cc1` [1-Chloro-4-nitrobenzene]?
**A.** NOAEL (Oryctolagus sp.; developmental, duration: 13 hours, oral, gavage, New Zealand): 15 mg/kg-day; LD50 (Rattus norvegicus [1]; oral, gavage, Sprague-Dawley): 530 mg/kg; NOAEL (Rattus norvegicus [1]; developmental, duration: 14 days, oral, gavage, Sprague-Dawley): 15 mg/kg-day; NOAEL (Rattus norvegicus [1]; reproduction developmental, duration: 14 days, oral, gavage, F, Sprague-Dawley): < 5 mg/kg-day; NOAEL (Rattus norvegicus [1]; reproduction developmental, duration: 167 days, oral, gavage, Sprague-Dawley, generation: F0): 0.7 mg/kg-day; NOAEL (Rattus norvegicus [1]; reproduction developmental, duration: 167 days, oral, gavage, Sprague-Dawley, generation: F1): 5 mg/kg-day; NOAEL (Rattus norvegicus [1]; reproduction developmental, duration: 167 days, oral, gavage, Sprague-Dawley, generation: F2): 5 mg/kg-day

**Q.** How did the LOAEL (Oryctolagus sp.; reproduction developmental, duration: 13 days, oral, gavage, F, New Zealand) turn out when `CCCCCCCCCCCCCCCCN.F` [1-Hexadecanamine, hydrofluoride] was run?
**A.** The LOAEL was 1.2 mg/kg-day.

**Q.** What about the NOAEL (Rattus norvegicus [1]; reproduction developmental, duration: 10 days, oral, gavage, F, Long-Evans) of the same compound?
**A.** The NOAEL was 30 mg/kg-day.

**Q.** What about the NOAEL (Rattus norvegicus [1]; reproduction developmental, oral, gavage, Long-Evans, generation: F0) of the same compound?
**A.** Its NOAEL is 6 mg/kg-day.

**Q.** What about the NOAEL (Rattus norvegicus [1]; reproduction developmental, oral, gavage, Long-Evans, generation: F1) of the same compound?
**A.** The NOAEL was 30 mg/kg-day.

**Q.** `CC(C)(c1cc(Cl)c(O)c(Cl)c1)c1cc(Cl)c(O)c(Cl)c1` [2,2',6,6'-Tetrachlorobisphenol A] was tested. Which LEL (Mus musculus [2]; intraperitoneal) did it give?
**A.** Its LEL is 20 mg/kg-day.

**Q.** With `c1ccc2sc(SSc3nc4ccccc4s3)nc2c1` [2,2'-Dithiobisbenzothiazole] as the compound, how does the LD50 (Oryctolagus sp.; oral) read?
**A.** Its LD50 is 6200 mg/kg.

**Q.** And the LD50 (Mus musculus [3]; injection, Intraperitoneal)?
**A.** The LD50 was 2250 mg/kg.

**Q.** And the LD50 (Mus musculus [3]; injection, intravenous)?
**A.** The LD50 was 180 mg/kg.

**Q.** What about the NOAEL (Mus musculus [3]; developmental, oral, N strain) of the same compound?
**A.** The NOAEL was 10 mg/kg-day.

**Q.** And the LD50 (Rattus norvegicus [1]; injection, Intraperitoneal)?
**A.** Its LD50 is 3000 mg/kg and 2600 mg/kg.

**Q.** And the “NOAEL (% diet)” value (Rattus norvegicus [1]; developmental, duration: 22 days, oral, diet, Wistar)?
**A.** The value was 1.

**Q.** What about the “NOAEL (% diet)” value (Rattus norvegicus [1]; reproduction developmental, duration: 22 days, oral, diet, F, Wistar) of the same compound?
**A.** Its value is 0.2.

**Q.** What about the NOAEL (Rattus norvegicus [1]; reproduction developmental, oral, Wistar, hybrid, generation: F1) of the same compound?
**A.** Its NOAEL is 10 mg/kg-day.

**Q.** What about the NOAEL (Rattus norvegicus [1]; short-term, duration: 22 days, oral, diet, F, Wistar) of the same compound?
**A.** The NOAEL was 127 mg/kg-day.

**Q.** `Oc1ccc(C(c2ccc(O)cc2)C(Cl)(Cl)Cl)cc1` [2,2-Bis(4-hydroxyphenyl)-1,1,1-trichloroethane] was tested. Which LEL (Mus musculus [2]; subcutaneous) did it give?
**A.** The LEL was 100 mg/kg-day.

**Q.** `Cc1cc(C)c(O)c(C)c1` [2,4,6-Trimethylphenol] was tested. Which LD50 (Oryctolagus sp.; dermal, New Zealand) did it give?
**A.** Its LD50 is > 2000 mg/kg.

**Q.** And the LD50 (Rattus norvegicus [1]; oral, gavage)?
**A.** Its LD50 is > 2000 mg/kg.

**Q.** And the NOAEL (Rattus norvegicus [1]; reproduction developmental, duration: 4 weeks, oral, gavage, F, Sprague-Dawley)?
**A.** The NOAEL was ≥ 200 mg/kg-day.

**Q.** What about the NOAEL (Rattus norvegicus [1]; reproduction developmental, duration: 4 weeks, oral, gavage, Sprague-Dawley, generation: F0) of the same compound?
**A.** Its NOAEL is ≥ 200 mg/kg-day.

**Q.** And the NOAEL (Rattus norvegicus [1]; reproduction developmental, duration: 4 weeks, oral, gavage, Sprague-Dawley, generation: F1)?
**A.** The NOAEL was ≥ 200 mg/kg-day.

**Q.** What about the NOEL (Rattus norvegicus [4]; gavage, M, Sprague-Dawley, Clinical Observation: Salivation + Histopathology: Stomach/forestomach- Squamous cell metaplasia Stomach/forestomach- Edema Stomach/…) of the same compound?
**A.** The NOEL was 10 mg/kg-day.

**Q.** Which LD50 (Oryctolagus sp.; dermal, occlusive) does the source give for `CC(C)CC(=O)CC(C)CC(C)C` (stereo unspecified) [2,6,8-Trimethyl-4-nonanone] here?
**A.** Its LD50 is 9030 mg/kg.

**Q.** What about the LD50 (Rattus norvegicus [1]; oral, gavage) of the same compound?
**A.** Its LD50 is 8470 mg/kg.

**Q.** What about the NOAEL (Rattus norvegicus [1]; reproduction developmental, oral, gavage, CD, generation: F1) of the same compound?
**A.** Its NOAEL is 300 mg/kg-day.

**Q.** What about the NOAEL (Rattus norvegicus [1]; reproduction developmental, oral, gavage, F, CD) of the same compound?
**A.** Its NOAEL is 100 mg/kg-day.

**Q.** `CC(=O)Oc1cccc(Oc2ccc(C(F)(F)F)cc2Cl)c1` [2-Chloro-1-(3-acetoxyphenoxy)-4-(trifluoromethyl)benzene] was tested. Which LD50 (Oryctolagus sp.; dermal, occlusive, New Zealand) did it give?
**A.** Its LD50 is > 200 mg/kg.

**Q.** What about the LC50 (Rattus norvegicus [1]; Inhalation, Wistar) of the same compound?
**A.** Its LC50 is > 4.13 µg/mL.

**Q.** And the LD50 (Rattus norvegicus [1]; oral, Crj:CD)?
**A.** The LD50 was > 500 mg/kg.

**Q.** How did the LD50 (Oryctolagus sp.; dermal, New Zealand) turn out when `Cc1cccc([N+](=O)[O-])c1` [3-Nitrotoluene] was run?
**A.** The LD50 was > 20000 mg/kg.

**Q.** What about the LD50 (Mus musculus [3]; oral) of the same compound?
**A.** The LD50 was 1230 mg/kg.

**Q.** And the LOAEL (Mus musculus [3]; subchronic, duration: 13 weeks, oral, diet, B6C3F1)?
**A.** Its LOAEL is ≥ 123 mg/kg-day and ≤ 133 mg/kg-day.

**Q.** And the LD50 (Rattus norvegicus [1]; dermal)?
**A.** Its LD50 is > 1160 mg/kg.

**Q.** What about the LC50 (Rattus norvegicus [1]; inhalation) of the same compound?
**A.** Its LC50 is > 2.42 µg/mL.

**Q.** What about the LC50 (Rattus norvegicus [1]; inhalation, Sprague-Dawley) of the same compound?
**A.** Its LC50 is > 881 mg/m3.

**Q.** And the LD50 (Rattus norvegicus [1]; oral)?
**A.** Its LD50 is 2120 mg/kg and 1070 mg/kg and 1780 mg/kg.

**Q.** And the LD50 (Rattus norvegicus [1]; oral, Sprague-Dawley)?
**A.** The LD50 was 1070 mg/kg.

**Q.** And the LD50 (Rattus norvegicus [1]; oral, gavage, Wistar)?
**A.** The LD50 was 2200 mg/kg and 2000 mg/kg.

**Q.** What about the LOAEL (Rattus norvegicus [1]; subchronic, duration: 13 weeks, oral, diet, F, Fischer 344) of the same compound?
**A.** Its LOAEL is 60 mg/kg-day.

**Q.** What about the LOAEL (Rattus norvegicus [1]; subchronic, duration: 13 weeks, oral, diet, M, Fischer 344) of the same compound?
**A.** Its LOAEL is 60 mg/kg-day.

**Q.** And the NOEL (Rattus norvegicus [4]; diet, F, Fischer 344, Body Weight Changes: decrease + Food Consumption: decrease + Hematology: Hct decrease, Hgb decrease, RBC decrease, MCV increase, MCH …)?
**A.** The NOEL was < 48 mg/kg-day.

**Q.** And the NOEL (Rattus norvegicus [4]; diet, M/F, Fischer 344, Body Weight Changes: decrease + Food Consumption: decrease + Hematology: Hct decrease, Hgb decrease, RBC decrease, MCV increase, MCH …)?
**A.** Its NOEL is < 60 mg/kg-day.

**Q.** `CCCCCCCCc1ccc(Nc2ccc(CCCCCCCC)cc2)cc1` [4,4'-Dioctyldiphenylamine] was tested. Which LD50 (Oryctolagus sp.; dermal, occlusive, New Zealand) did it give?
**A.** The LD50 was > 7940 mg/kg.

**Q.** What about the LD50 (Rattus norvegicus [1]; oral, gavage, Sprague-Dawley) of the same compound?
**A.** The LD50 was > 7940 mg/kg.

**Q.** What about the NOEL (Rattus norvegicus [4]; gavage, M, Sprague-Dawley, Hematology: PT increase(tendency) APTT increase) of the same compound?
**A.** The NOEL was 25 mg/kg-day.

**Q.** How did the LEL (Mus musculus [2]; subcutaneous) turn out when `O=C(O)c1ccc(O)cc1` [4-Hydroxybenzoic acid] was run?
**A.** The LEL was 5 mg/kg-day.

**Q.** Which results are given for `O=C([O-])c1cc(Oc2ccc(C(F)(F)F)cc2Cl)ccc1[N+](=O)[O-].[Na+]` [Acifluorfen sodium]?
**A.** LEL (Rattus norvegicus [5]; [6]): 25 mg/kg-day; NOEL (Rattus norvegicus [5]; [6]): 1.25 mg/kg-day; LD50 (Oryctolagus sp.; dermal, occlusive, Albino): 1460 mg/kg; NOAEL (Oryctolagus sp.; developmental, duration: 24 days, oral, gavage, New Zealand): 12 mg/kg-day; NOAEL (Oryctolagus sp.; reproduction developmental, duration: 24 days, oral, gavage, F, New Zealand): 12 mg/kg-day; LC50 (Rattus norvegicus [1]; Inhalation, albino King (Kng:(SD)BR)): > 1.38 µg/mL; LD50 (Rattus norvegicus [1]; oral, CF Nelson): 122 mg/kg; NOAEL (Rattus norvegicus [1]; developmental, duration: 14 days, oral, gavage, Crl:COBS-CD-(SD)BR): 20 mg/kg-day

**Q.** Which results are given for `C=CCO` [Allyl alcohol]?
**A.** LOAEL (Rattus norvegicus [5]; [7]): 6.9 mg/kg-day; NOEL (Rattus norvegicus [5]; [7]): 4.8 mg/kg-day; LD50 (Oryctolagus sp.; dermal): 89 mg/kg; LD50 (Mus musculus [3]; oral, gavage, Swiss-Webster): 96 mg/kg; LC50 (Rattus norvegicus [1]; inhalation, Long-Evans): ≥ 297 mg/m3 and ≤ 333 mg/m3; LC50 (Rattus norvegicus [1]; inhalation, Sherman Wistar): 594 mg/m3; LD50 (Rattus norvegicus [1]; oral, Sherman Wistar): 64 mg/kg; LD50 (Rattus norvegicus [1]; oral, gavage, Long-Evans): ≥ 99 mg/kg and ≤ 105 mg/kg; LD50 (Rattus norvegicus [1]; oral, gavage, Osborne-Mendel): 70 mg/kg; NOAEL (Rattus norvegicus [1]; chronic, duration: 15 weeks, oral, drinking water, Wistar): 11.2 mg/kg-day; LOAEL (Rattus norvegicus [1]; [8]): 95 mg/m3; NOAEL (Rattus norvegicus [1]; [8]): 47.5 mg/m3; NOEL (Rattus norvegicus [4]; gavage, F, Fischer 344, Hematology: Plt increase + Blood Chemistry: BUN increase25 Bile acid increase + Absolute Organ Weight: Liver increase + Relative Organ …): 1.5 mg/kg-day; NOEL (Rattus norvegicus [4]; gavage, M, Fischer 344, Hematology: Plt increase + Blood Chemistry: BUN increase25 Bile acid increase + Absolute Organ Weight: Liver increase + Relative Organ …): 3 mg/kg-day

**Q.** `CCCCCCCCCCCCCOC(=O)CCCCC(=O)OCCCCCCCCCCCCC` [Bis(tridecyl) adipate] was tested. Which LD50 (Oryctolagus sp.; dermal) did it give?
**A.** The LD50 was > 2000 mg/kg.

**Q.** What about the LD50 (Oryctolagus sp.; dermal, semiocclusive, New Zealand) of the same compound?
**A.** The LD50 was > 5000 mg/kg.

**Q.** And the LC50 (Rattus norvegicus [1]; Inhalation, Sprague-Dawley)?
**A.** Its LC50 is > 3.2 µg/mL.

**Q.** And the LD50 (Rattus norvegicus [1]; oral, Sherman Wistar)?
**A.** Its LD50 is > 16000 mg/kg.

**Q.** And the LD50 (Rattus norvegicus [1]; oral, gavage, Wistar)?
**A.** The LD50 was > 15000 mg/kg.

**Q.** And the NOAEL (Rattus norvegicus [1]; reproduction developmental, duration: 19 days, dermal, Sprague-Dawley)?
**A.** The NOAEL was 800 mg/kg-day.

**Q.** And the NOAEL (Rattus norvegicus [1]; subchronic, duration: 13 weeks, dermal, Sprague-Dawley)?
**A.** Its NOAEL is 800 mg/kg-day.

— EPA's ToxValDB 9.5
